The source made the active and inactive calls. The calls are words filed in the database; no cut-off is given here.

Test [1] concerns HeLa. In words: Cytotoxicity against human HeLa cells assessed as cell viability at 120 uM after 3 days by CellTiter96 Aqueous One Solution assay. Type of test: functional, cell-based.
For the next test, the target named is T1, DNA topoisomerase 1 (Homo sapiens, UniProt P11387).
T1 sequence (P11387 whole entry): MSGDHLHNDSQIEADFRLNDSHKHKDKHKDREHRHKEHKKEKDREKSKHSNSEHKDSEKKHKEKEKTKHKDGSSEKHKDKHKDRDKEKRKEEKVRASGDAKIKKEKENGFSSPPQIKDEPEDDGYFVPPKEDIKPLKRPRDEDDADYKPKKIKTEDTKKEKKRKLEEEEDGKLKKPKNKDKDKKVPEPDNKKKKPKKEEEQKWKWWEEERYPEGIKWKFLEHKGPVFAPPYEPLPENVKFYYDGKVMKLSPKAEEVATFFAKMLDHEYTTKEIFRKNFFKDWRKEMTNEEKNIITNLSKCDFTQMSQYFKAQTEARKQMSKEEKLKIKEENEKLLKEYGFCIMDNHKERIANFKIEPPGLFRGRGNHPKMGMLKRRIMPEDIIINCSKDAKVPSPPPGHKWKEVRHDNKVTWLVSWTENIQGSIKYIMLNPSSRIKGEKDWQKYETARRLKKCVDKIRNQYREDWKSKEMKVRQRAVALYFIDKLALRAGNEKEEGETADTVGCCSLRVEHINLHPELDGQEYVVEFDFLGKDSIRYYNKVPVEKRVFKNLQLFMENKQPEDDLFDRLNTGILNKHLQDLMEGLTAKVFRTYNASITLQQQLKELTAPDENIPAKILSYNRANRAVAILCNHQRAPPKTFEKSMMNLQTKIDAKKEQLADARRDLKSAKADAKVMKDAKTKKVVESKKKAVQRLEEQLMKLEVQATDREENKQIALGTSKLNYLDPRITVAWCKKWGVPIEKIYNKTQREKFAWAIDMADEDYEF
The experiment in a line: Inhibition of human topoisomerase 1 activity assessed as DNA triplex formation and presence of supercoiled DNA by microplate assay.

Another test has as its system Escherichia coli. In words: Inhibition of Escherichia coli topoisomerase assessed as bacterial proliferation at 200 uM after 24 hrs by visual inspection assay.
The test system of test [2] is HeLa. The experiment in a line: Cytotoxicity against human HeLa cells assessed as cell viability at 120 uM after 3 days by CellTiter96 Aqueous One Solution assay (reference value: 100%). Format: functional. The conditions noted are these: 72 h, read-out: Activity.
Test [3] has as its target T2, ATP-dependent translocase ABCB1 (Homo sapiens, UniProt P08183). In words: Inhibition of human P-glycoprotein 1 ATPase activity assessed as remaining ATP level by luminescence analysis.
The test system of test [4] is HeLa. The experiment in a line: Effect on apoptosis in human HeLa cells assessed as cell morphology and extracellular membrane after 48 hrs. Format: functional, cell-based.
The target in test [5] is T2, ATP-dependent translocase ABCB1. In words: Inhibition of P-glycoprotein 1 in human HeLa cells assessed as intracellular accumulation of Hoechst 33342 dye after 30 mins by fluorescence microscopic analysis. Format: cell-based.

T2 sequence (P08183 whole entry): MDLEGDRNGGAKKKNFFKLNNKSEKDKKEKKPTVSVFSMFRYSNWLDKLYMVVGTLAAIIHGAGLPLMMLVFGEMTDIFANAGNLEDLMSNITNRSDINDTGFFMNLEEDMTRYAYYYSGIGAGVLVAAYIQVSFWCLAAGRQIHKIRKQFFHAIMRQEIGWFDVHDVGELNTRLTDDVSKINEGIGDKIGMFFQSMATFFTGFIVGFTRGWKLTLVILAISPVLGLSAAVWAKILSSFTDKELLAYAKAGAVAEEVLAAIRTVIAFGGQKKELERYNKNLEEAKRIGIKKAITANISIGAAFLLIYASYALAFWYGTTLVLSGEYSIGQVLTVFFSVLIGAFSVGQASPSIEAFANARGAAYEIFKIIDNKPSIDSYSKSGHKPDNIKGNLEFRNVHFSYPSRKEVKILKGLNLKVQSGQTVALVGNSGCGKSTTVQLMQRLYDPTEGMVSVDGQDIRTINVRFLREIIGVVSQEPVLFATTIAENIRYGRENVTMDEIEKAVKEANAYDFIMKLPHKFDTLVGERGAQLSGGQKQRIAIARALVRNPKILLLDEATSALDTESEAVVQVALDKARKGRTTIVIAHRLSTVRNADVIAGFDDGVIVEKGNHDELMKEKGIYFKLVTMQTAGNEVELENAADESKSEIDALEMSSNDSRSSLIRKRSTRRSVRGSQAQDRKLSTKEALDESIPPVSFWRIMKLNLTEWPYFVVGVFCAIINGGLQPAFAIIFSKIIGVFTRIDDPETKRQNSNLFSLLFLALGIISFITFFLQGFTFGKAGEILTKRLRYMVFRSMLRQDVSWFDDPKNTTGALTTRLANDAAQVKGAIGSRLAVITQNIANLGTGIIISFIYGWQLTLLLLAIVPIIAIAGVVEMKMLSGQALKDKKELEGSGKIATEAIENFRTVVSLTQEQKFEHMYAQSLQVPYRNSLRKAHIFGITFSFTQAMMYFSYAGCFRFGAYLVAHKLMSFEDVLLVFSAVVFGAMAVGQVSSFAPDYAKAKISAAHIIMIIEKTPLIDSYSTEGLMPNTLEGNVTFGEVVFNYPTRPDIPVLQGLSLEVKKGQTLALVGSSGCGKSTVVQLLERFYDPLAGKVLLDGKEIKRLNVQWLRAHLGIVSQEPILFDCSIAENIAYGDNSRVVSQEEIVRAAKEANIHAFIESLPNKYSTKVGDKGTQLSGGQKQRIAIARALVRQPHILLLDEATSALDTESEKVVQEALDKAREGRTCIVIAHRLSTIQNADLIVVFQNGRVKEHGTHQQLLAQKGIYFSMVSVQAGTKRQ

For the molecule `CC(=O)OCC(OC(C)=O)C(OC(C)=O)C(OC(C)=O)C(OC(C)=O)C(OC(C)=O)OC(C)=O` (centres undefined), the outcome in the test with HeLa [1] was inactive. One may read the IC50 as the concentration that gives 50% inhibition. Take `NC(=O)c1ncn([C@@H]2O[C@H](CO)[C@@H](O)[C@H]2O)n1` [RIBAVIRIN]: the IC50 at DNA topoisomerase 1 worked out at 65.9 µM. Besides, the inhibition entry in the test on Escherichia coli is “inactive”.

Turning to `CO[C@@H]1O[C@H](CO)[C@H](O)[C@H](O)[C@H]1O`, the result in the test with HeLa [1] was inactive. Same read-out and setting: with `CC(=O)OCC(OC(C)=O)C(OC(C)=O)C(O)C1SCC(C(=O)N(C)C)N1C(C)=O` (centres undefined) the entry was “inactive”. `O=c1c(-c2ccc3c(c2)OCCO3)coc2cc(OC3OC(CO)C(O)C(O)C3O)ccc12` (centres undefined): the viability at 120 µM in the test on HeLa [2] was 82%. As for `CN(C=C(C#N)C#N)CC(O)C(O)C(O)C(O)CO` (centres undefined), at DNA topoisomerase 1, the IC50 came out at 47.5 µM. In addition, in the test on Escherichia coli, the inhibition entry was “inactive”. Moreover, the outcome in the test with HeLa [1] was inactive. For `CC(=O)OC[C@H](OC(C)=O)[C@H](OC(C)=O)[C@@H](CNC(=O)c1ccc(C)c(C)c1)OC(C)=O`, the IC50 in test [3] worked out at 28 µM; in test [5], 15.5 µM. For the same molecule, the result in the test on HeLa [4] and in the test on HeLa [1] was inactive. For `CCSC(SCC)C(O)C(O)C(O)C(O)CO` (centres undefined), in the test on HeLa [1], the outcome was inactive. As to `CC(=O)c1ccc(OCC(O)CN2CCN(C(c3ccccc3)c3ccccc3)CC2)cc1` (centres undefined), in the test on HeLa [2], the viability at 120 µM was determined as 37%. With `CC(=O)OCC1OC(Sc2ccccc2)C(OC(C)=O)C(OC(C)=O)C1OC(C)=O` (centres undefined), the values for the IC50 in test [3] and in test [5] were 37 µM and 15.4 µM, respectively. In addition, the result in the test with HeLa [4] was inactive. Also, the viability at 120 µM in the test with HeLa [2] was 87%.

The values are drawn from ChEMBL document CHEMBL3217430, “Experimental validation of in silico target predictions on synergistic protein targets” (Medchemcomm, 2013).
